Results as given in PMC11667158, “Flexible fluorine-thiol displacement stapled peptides with enhanced membrane penetration for the estrogen receptor/coactivator interaction” (The Journal of Biological Chemistry, 2024).

Key:
MCF-7 ER + cells = experiment: Soft agar colony formation assay (anchorage independent growth); assay type: cell-based; details: MCF-7, E2 1 nM, peptide 20 μM, 14 to 18 days
Experimental: Figure 6 Soft agar colony formation assay. (A) soft agar average colony size and (B) average colony formation in MCF-7 ER + cells assessed in the presence of vehicle (EtOH), E2 (1 nM), and the indicated peptide treatments (WT, LL, or LD) at 20 μM. Graphed data represent the mean ± SD (n = 6). An ordinary one-way ANOVA was used to assess statistical significance where ‘∗’ indicates p < 0.05, ‘∗∗’ indicates p < 0.01, ‘∗∗∗’ indicates p < 0.001. ER, estrogen receptor.
Cells were seeded (1.5 × 10^4 cells/well) in 1X sterile low melt agarose (Life Technologies) containing 5% dextran-coated charcoal and the appropriate treatment. Soft agar assays were allowed to proceed for 14 to 18 days at 37 °C. Afterward, cell colonies were stained with 0.005% crystal violet in PBS. Colony number and colony size were analyzed with ImageJ (Wayne Rasband, National Institutes of Health, http://rsbweb.nih.gov/ij/). Data are presented as the average ± SD of six independent measurements.

[1] = Circular dichroism, percent α helicity; assay type: physicochemical; details: CD, 222 nm MRE, 50 μM peptide, room temperature
Source text: CD spectra were obtained using a J-815 CD spectrometer (Jasco) using the wavelength range of 190 to 260 nm. Spectra were collected in a 10 mm quartz cuvette and each spectrum represents the accumulation of three solvent-blank subtracted runs. Data were collected using the following system parameters: bandwidth of 1.00 nm, digital integration time of 2 s, pitch of 1.0 nm, and a scan speed of 50 nm/min. Data underwent minimal adaptive smoothing, and all the related spectra were taken at room temperature under inert nitrogen flow. Peptides were solubilized to 50 μM in either Milli-Q water, 45 mM sodium phosphate buffer (pH 7.4), 30 mM SDS (pH 7.4), or 50% (v/v) TFE. Percentage of α helicity was calculated based on the ellipticity value at 222 nm as done previously ([25], [63]), following the equation α helicity (%)=([ϴ]obs222-[ϴ]0)/([ϴ]max222-[ϴ]0) where [ϴ]max222 = (−44,000 + 250T) (1-x/n), [ϴ]0 = […], T = 20 °C, x = 3, n = number of residues ([25], [63]).

[2] = target: SRC2-LD, FTDR-stapled, FITC-labelled; experiment: fluorescence polarisation; saturation fluorescence anisotropy; ERα-LBD serially diluted to 0.4-7500 nM with 17β-estradiol at four equivalents to ERα; FITC-peptide 50 nM; 10 mM Hepes pH 7.4, 50 mM EDTA, 150 mM NaCl, 0.005% Tween-20; 96-well plates
[3] = target: SRC2-LL, FTDR-stapled, FITC-labelled; experiment: as above

Row | Substance | downregulation of colony size compared to the vehicle (MCF-7 ER + cells) [%] | average colony size (MCF-7 ER + cells; n = 6) | α-helicity (%) ([1]; 30 mM SDS micellar solution, pH 7.4) | α-helicity (%) ([1]; 45 mM sodium phosphate buffer, pH 7.4) | α-helicity (%) ([1]; 50% (v/v) TFE in water, pH 7.4) | α-helicity (%) ([1]; Water) | fold increase in Kd against SRC2-RCM [2] [fold] | fold increase in Kd against SRC2-RCM [3] [fold]
1 | HKILHRLLQDS [SRC2-WT] | 19 | 10,193 μm^2 | 57.9 | 17 | 84 | 12.8 | – | –
2 | estrogen receptor α ligand-binding domain (domain or fragment) | – | – | – | – | – | – | 1.2 | 1.5
